“And” between values parts separate entries of the source, which are not always exact repeats. Identical values can stand only once. ± gives the expanded uncertainty stated by the source.
Tests used:
[1] = xn = mol fraction of the nth substance listed; conditions: 101 kPa, Liquid; for speed of sound: Sing-around technique in a fixed-path interferometer; for mass density: Vibrating tube method
[2] = 101 kPa, Liquid; for speed of sound: Sing-around technique in a fixed-path interferometer; for mass density: Vibrating tube method

Q: Which results are given for `OCc1ccccc1` [benzenemethanol] + CCC(O)CO?
A: speed of sound ([1]; 298.15 K, x1 = 1): 1525.2 ± 1.3 m/s; mass density ([1]; 298.15 K, x1 = 1): 1041.22 ± 0.26 kg/m3; speed of sound ([1]; 303.15 K, x1 = 1): 1509.3 ± 1.3 m/s; mass density ([1]; 303.15 K, x1 = 1): 1037.35 ± 0.26 kg/m3; speed of sound ([1]; 308.15 K, x1 = 1): 1493.6 ± 1.3 m/s; mass density ([1]; 308.15 K, x1 = 1): 1033.47 ± 0.26 kg/m3; speed of sound ([1]; 313.15 K, x1 = 1): 1478 ± 1.3 m/s; mass density ([1]; 313.15 K, x1 = 1): 1029.58 ± 0.26 kg/m3; speed of sound ([1]; 318.15 K, x1 = 1): 1462.6 ± 1.3 m/s; mass density ([1]; 318.15 K, x1 = 1): 1025.67 ± 0.25 kg/m3; speed of sound ([1]; 323.15 K, x1 = 1): 1447.3 ± 1.3 m/s; mass density ([1]; 323.15 K, x1 = 1): 1021.75 ± 0.25 kg/m3

Q: Which speed of sound ([2]; 298.15 K) does the source give for `CCC(O)CO` (stereo not drawn) [1,2-butanediol] here?
A: 1452.6 ± 1.3 m/s

Q: What about the mass density ([2]; 298.15 K) of the same molecule?
A: 998.509 ± 0.23 kg/m3 and 998.492 ± 0.23 kg/m3

Q: And the speed of sound ([2]; 303.15 K)?
A: 1438.2 ± 1.3 m/s and 1437.7 ± 1.3 m/s

Q: What about the mass density ([2]; 303.15 K) of the same molecule?
A: 994.744 ± 0.23 kg/m3 and 994.719 ± 0.23 kg/m3 and 994.759 ± 0.23 kg/m3

Q: And the speed of sound ([2]; 308.15 K)?
A: 1423.6 ± 1.3 m/s

Q: What about the mass density ([2]; 308.15 K) of the same molecule?
A: 990.956 ± 0.23 kg/m3 and 990.971 ± 0.23 kg/m3

Q: What about the speed of sound ([2]; 313.15 K) of the same molecule?
A: 1409.2 ± 1.3 m/s and 1408.5 ± 1.3 m/s and 1409.1 ± 1.3 m/s

Q: And the mass density ([2]; 313.15 K)?
A: 987.136 ± 0.23 kg/m3 and 987.113 ± 0.23 kg/m3 and 987.152 ± 0.23 kg/m3

Q: What about the speed of sound ([2]; 318.15 K) of the same molecule?
A: 1394.6 ± 1.2 m/s and 1394 ± 1.2 m/s and 1394.5 ± 1.2 m/s

Q: What about the mass density ([2]; 318.15 K) of the same molecule?
A: 983.284 ± 0.23 kg/m3 and 983.257 ± 0.23 kg/m3 and 983.297 ± 0.23 kg/m3

Q: What about the speed of sound ([2]; 323.15 K) of the same molecule?
A: 1380 ± 1.2 m/s and 1379.6 ± 1.2 m/s and 1379.9 ± 1.2 m/s

Q: What about the mass density ([2]; 323.15 K) of the same molecule?
A: 979.394 ± 0.23 kg/m3 and 979.371 ± 0.23 kg/m3 and 979.406 ± 0.23 kg/m3

Q: What does the source list for `CC(O)CCO` (stereo not drawn) [1,3-butanediol]?
A: speed of sound ([2]; 298.15 K): 1527.8 ± 2.1 m/s; mass density ([2]; 298.15 K): 1001.82 ± 0.84 kg/m3; speed of sound ([2]; 303.15 K): 1514.1 ± 2.1 m/s; mass density ([2]; 303.15 K): 998.418 ± 0.84 kg/m3; speed of sound ([2]; 308.15 K): 1500.2 ± 2.1 m/s; mass density ([2]; 308.15 K): 994.987 ± 0.83 kg/m3; speed of sound ([2]; 313.15 K): 1486.3 ± 2.1 m/s; mass density ([2]; 313.15 K): 991.528 ± 0.83 kg/m3; speed of sound ([2]; 318.15 K): 1472.3 ± 2.1 m/s; mass density ([2]; 318.15 K): 988.035 ± 0.82 kg/m3; speed of sound ([2]; 323.15 K): 1458.3 ± 2.1 m/s; mass density ([2]; 323.15 K): 984.506 ± 0.82 kg/m3

Q: With `CCC(O)CO` (stereo not drawn) [1,2-butanediol] + CC(O)CCO as the molecule, how does the speed of sound ([1]; 298.15 K, x1 = 1) read?
A: 1452.6 ± 1.3 m/s

Q: What about the mass density ([1]; 298.15 K, x1 = 1) of the same molecule?
A: 998.509 ± 0.23 kg/m3

Q: What about the speed of sound ([1]; 303.15 K, x1 = 1) of the same molecule?
A: 1438.2 ± 1.3 m/s

Q: What about the mass density ([1]; 303.15 K, x1 = 1) of the same molecule?
A: 994.759 ± 0.23 kg/m3

Q: And the speed of sound ([1]; 308.15 K, x1 = 1)?
A: 1423.6 ± 1.3 m/s

Q: What about the mass density ([1]; 308.15 K, x1 = 1) of the same molecule?
A: 990.971 ± 0.23 kg/m3

Q: What about the speed of sound ([1]; 313.15 K, x1 = 1) of the same molecule?
A: 1409.1 ± 1.3 m/s

Q: What about the mass density ([1]; 313.15 K, x1 = 1) of the same molecule?
A: 987.152 ± 0.23 kg/m3

Q: And the speed of sound ([1]; 318.15 K, x1 = 1)?
A: 1394.5 ± 1.2 m/s

Q: What about the mass density ([1]; 318.15 K, x1 = 1) of the same molecule?
A: 983.297 ± 0.23 kg/m3

Q: What about the speed of sound ([1]; 323.15 K, x1 = 1) of the same molecule?
A: 1379.9 ± 1.2 m/s

Q: What about the mass density ([1]; 323.15 K, x1 = 1) of the same molecule?
A: 979.406 ± 0.23 kg/m3

Q: Which results are given for `CCC(O)CO` (stereo not drawn) [1,2-butanediol] + OCCc1ccccc1?
A: speed of sound ([1]; 298.15 K, x2 = 0): 1452.6 ± 1.3 m/s; mass density ([1]; 298.15 K, x2 = 0): 998.509 ± 0.23 kg/m3; speed of sound ([1]; 303.15 K, x2 = 0): 1437.7 ± 1.3 m/s; mass density ([1]; 303.15 K, x2 = 0): 994.719 ± 0.23 kg/m3; speed of sound ([1]; 308.15 K, x2 = 0): 1423.6 ± 1.3 m/s; mass density ([1]; 308.15 K, x2 = 0): 990.971 ± 0.23 kg/m3; speed of sound ([1]; 313.15 K, x2 = 0): 1408.5 ± 1.3 m/s; mass density ([1]; 313.15 K, x2 = 0): 987.113 ± 0.23 kg/m3; speed of sound ([1]; 318.15 K, x2 = 0): 1394 ± 1.2 m/s; mass density ([1]; 318.15 K, x2 = 0): 983.257 ± 0.23 kg/m3; speed of sound ([1]; 323.15 K, x2 = 0): 1379.6 ± 1.2 m/s; mass density ([1]; 323.15 K, x2 = 0): 979.371 ± 0.23 kg/m3

Q: Which speed of sound ([2]; 298.15 K) does the source give for `OCCc1ccccc1` [2-phenylethanol] here?
A: 1526.1 ± 1.3 m/s

Q: What about the mass density ([2]; 298.15 K) of the same molecule?
A: 1016.14 ± 0.24 kg/m3

Q: And the speed of sound ([2]; 303.15 K)?
A: 1510.5 ± 1.3 m/s

Q: And the mass density ([2]; 303.15 K)?
A: 1012.39 ± 0.24 kg/m3

Q: And the speed of sound ([2]; 308.15 K)?
A: 1494.7 ± 1.3 m/s

Q: And the mass density ([2]; 308.15 K)?
A: 1008.61 ± 0.24 kg/m3

Q: And the speed of sound ([2]; 313.15 K)?
A: 1479.2 ± 1.3 m/s

Q: And the mass density ([2]; 313.15 K)?
A: 1004.75 ± 0.23 kg/m3

Q: What about the speed of sound ([2]; 318.15 K) of the same molecule?
A: 1463.2 ± 1.3 m/s

Q: What about the mass density ([2]; 318.15 K) of the same molecule?
A: 1000.93 ± 0.23 kg/m3

Q: What about the speed of sound ([2]; 323.15 K) of the same molecule?
A: 1447.7 ± 1.3 m/s

Q: What about the mass density ([2]; 323.15 K) of the same molecule?
A: 997.075 ± 0.23 kg/m3

Q: Which speed of sound ([1]; 298.15 K, x2 = 0) does the source give for `CCC(C)O` (stereo not drawn) [butan-2-ol] + CCC(O)CO here?
A: 1212.7 ± 1.2 m/s

Q: What about the mass density ([1]; 298.15 K, x2 = 0) of the same molecule?
A: 803.103 ± 0.24 kg/m3

Q: What about the speed of sound ([1]; 303.15 K, x2 = 0) of the same molecule?
A: 1194.5 ± 1.2 m/s

Q: And the mass density ([1]; 303.15 K, x2 = 0)?
A: 798.891 ± 0.24 kg/m3

Q: And the speed of sound ([1]; 308.15 K, x2 = 0)?
A: 1176.2 ± 1.2 m/s

Q: What about the mass density ([1]; 308.15 K, x2 = 0) of the same molecule?
A: 794.588 ± 0.24 kg/m3

Q: And the speed of sound ([1]; 313.15 K, x2 = 0)?
A: 1157.9 ± 1.2 m/s

Q: What about the mass density ([1]; 313.15 K, x2 = 0) of the same molecule?
A: 790.191 ± 0.24 kg/m3

Q: And the speed of sound ([1]; 318.15 K, x2 = 0)?
A: 1139.5 ± 1.2 m/s

Q: And the mass density ([1]; 318.15 K, x2 = 0)?
A: 785.692 ± 0.24 kg/m3

Q: And the speed of sound ([1]; 323.15 K, x2 = 0)?
A: 1121 ± 1.2 m/s

Q: And the mass density ([1]; 323.15 K, x2 = 0)?
A: 781.09 ± 0.24 kg/m3

Q: With `CCC(C)O` (stereo not drawn) [butan-2-ol] as the molecule, how does the speed of sound ([2]; 298.15 K) read?
A: 1212.7 ± 1.2 m/s

Q: What about the mass density ([2]; 298.15 K) of the same molecule?
A: 803.103 ± 0.24 kg/m3

Q: What about the speed of sound ([2]; 303.15 K) of the same molecule?
A: 1194.5 ± 1.2 m/s

Q: And the mass density ([2]; 303.15 K)?
A: 798.891 ± 0.24 kg/m3

Q: And the speed of sound ([2]; 308.15 K)?
A: 1176.2 ± 1.2 m/s

Q: And the mass density ([2]; 308.15 K)?
A: 794.588 ± 0.24 kg/m3

Q: What about the speed of sound ([2]; 313.15 K) of the same molecule?
A: 1157.9 ± 1.2 m/s

Q: And the mass density ([2]; 313.15 K)?
A: 790.191 ± 0.24 kg/m3

Q: And the speed of sound ([2]; 318.15 K)?
A: 1139.5 ± 1.2 m/s

Q: And the mass density ([2]; 318.15 K)?
A: 785.692 ± 0.24 kg/m3

Q: What about the speed of sound ([2]; 323.15 K) of the same molecule?
A: 1121 ± 1.2 m/s

Q: And the mass density ([2]; 323.15 K)?
A: 781.09 ± 0.24 kg/m3

Q: Which results are given for `OCc1ccccc1` [benzenemethanol]?
A: speed of sound ([2]; 298.15 K): 1525.2 ± 1.3 m/s; mass density ([2]; 298.15 K): 1041.22 ± 0.26 kg/m3; speed of sound ([2]; 303.15 K): 1509.3 ± 1.3 m/s; mass density ([2]; 303.15 K): 1037.35 ± 0.26 kg/m3; speed of sound ([2]; 308.15 K): 1493.6 ± 1.3 m/s; mass density ([2]; 308.15 K): 1033.47 ± 0.26 kg/m3; speed of sound ([2]; 313.15 K): 1478 ± 1.3 m/s; mass density ([2]; 313.15 K): 1029.58 ± 0.26 kg/m3; speed of sound ([2]; 318.15 K): 1462.6 ± 1.3 m/s; mass density ([2]; 318.15 K): 1025.67 ± 0.25 kg/m3; speed of sound ([2]; 323.15 K): 1447.3 ± 1.3 m/s; mass density ([2]; 323.15 K): 1021.75 ± 0.25 kg/m3
